What was measured:
Assay type in all cases: in vivo
[1] = test system: sedge, umbrella (small-flower umbrella sedge, Cyperus difformis); assay: Test B flooded paddy test; conditions: 250 g ai/ha, Flood; visual rating on scale of 0 to 100 where 0 is no effect and 100 is complete control; 13 to 15 d after treatment
Summary of the method: (§1)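 Ratings use a 0-100 visual scale, where 100 is complete control, and compare treated plants with controls after 13 to 15 d of greenhouse growth. Compound went straight into paddy water kept 3 cm over the soil surface, applied to seedlings at the 2-leaf stage.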

rice (Oryza sativa) = assay: Test B flooded paddy test; conditions: 250 g ai/ha, Flood; visual rating on scale of 0 to 100 where 0 is no effect and 100 is complete control; 13 to 15 d after treatment
Summary of the method: as §1

[2] = test system: barnyardgrass (Echinochloa crus-galli); assay: Test B flooded paddy test; conditions: 250 g ai/ha, Flood; visual rating on scale of 0 to 100 where 0 is no effect and 100 is complete control; 13 to 15 d after treatment
Summary of the method: as §1

[3] = test system: ducksalad (Heteranthera limosa); assay: Test B flooded paddy test; conditions: 250 g ai/ha, Flood; visual rating on scale of 0 to 100 where 0 is no effect and 100 is complete control; 13 to 15 d after treatment
Summary of the method: as §1

kochia (Kochia scoparia) = assay: Test C greenhouse herbicide test, postemergence
Summary of the method: (§2)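 Steps: pot plants in peat-based medium; spray postemergence at 1- to 4-leaf stage; hold in greenhouse 13 to 15 d; score visually against controls from 0 (no effect) to 100 (complete control).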

[4] = test system: oat, wild (wild oat, Avena fatua); assay: Test C greenhouse herbicide test, postemergence
Summary of the method: as §2

[5] = test system: chickweed (common chickweed, Stellaria media); assay: Test C greenhouse herbicide test, postemergence
Summary of the method: as §2

corn (Zea mays) = assay: Test A greenhouse herbicide test, pre- and postemergence; conditions: Postemergence
Summary of the method: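 Visual injury ratings, 0 (no effect) to 100 (complete control), versus untreated plants after roughly 10 d in a greenhouse. Compounds, formulated in a surfactant-containing non-phytotoxic solvent, were sprayed on loam–sand soil after sowing (pre) or on one- to two-leaf plants 2–10 cm tall (post).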

[6] = Postemergence, 16 g ai/ha, scale 0 to 100 (0 no effect, 100 complete control)
[7] = Postemergence, 31 g ai/ha, scale 0 to 100 (0 no effect, 100 complete control)
[8] = Postemergence, 62 g ai/ha, 0 to 100 scale (0 no effect, 100 complete control)
[9] = postemergence, 125 g ai/ha, scale 0 to 100, 0 no effect, 100 complete control
[10] = 500 g ai/ha, visual rating after approx. 10 d, 0 to 100 scale (0 no effect, 100 complete control)
[11] = Postemergence, 250 g ai/ha, scale 0 to 100, 0 no effect, 100 complete control, 13 to 15 d
[12] = 125 g ai/ha, 0 to 100 scale, 0 no effect, 100 complete control
[13] = Postemergence, 250 g ai/ha, scale 0 to 100, 0 is no effect, 100 is complete control

| Structure (SMILES) | Plant response rating, Sedge, Umbrella [1] | Plant response rating, Rice (rice (Oryza sativa)) | Plant response rating, Barnyardgrass [2] | Plant response rating, Ducksalad [3] | Plant response rating, Kochia (kochia (Kochia scoparia); [7]) | Kochia plant response rating (kochia (Kochia scoparia); [8]) | Kochia plant response rating (kochia (Kochia scoparia); [9]) | Plant response rating, Oat, Wild [4, 7] | Oat, Wild plant response rating [4, 8] | Oat, Wild plant response rating [4, 9] | Plant response rating, Chickweed [5, 7] | Chickweed plant response rating [5, 8] | Chickweed plant response rating [5, 9] | Plant response rating, Corn (corn (Zea mays); [10]) | Plant response rating, Kochia (kochia (Kochia scoparia); [11]) | Plant response rating, Oat, Wild [4, 11] | Plant response rating, Chickweed [5, 11] | Plant response rating, Corn (corn (Zea mays); [12]) | Plant response rating, Kochia (kochia (Kochia scoparia); [13]) | Plant response rating, Oat, Wild [4, 13] | further results |
| --- | --- | --- | --- | --- | --- | --- | --- | --- | --- | --- | --- | --- | --- | --- | --- | --- | --- | --- | --- | --- | --- |
| COC(=O)Oc1cnn(C)c(=O)c1-c1c(C)ccc2ccccc12 [Compound 143] | 0 | 0 | 0 | 0 | 30 | 60 | 60 | 40 | 55 | 60 | 45 | 70 | 80 | 20 |  |  |  |  |  |  | Plant response rating, Kochia (kochia (Kochia scoparia); [6]): 0; Plant response rating, Oat, Wild [4, 6]: 30; Plant response rating, Chickweed [5, 6]: 30; Plant response rating, Corn (corn (Zea mays); 125 g ai/ha, 0 to 100 scale where 0 is no effect and 100 is complete control): 0 |
| CC(=O)Oc1c(C)nn(C)c(=O)c1-c1c(C)cc(C)c2ccccc12 [Compound 153] | 0 | 0 | 0 | 0 | 40 | 70 | 80 | 90 | 95 | 95 | 90 | 95 | 98 | 80 | 85 | 95 | 98 | 0 |  |  |  |
| Cc1cc(C)c2ccccc2c1-c1c(OS(C)(=O)=O)c(C)nn(C)c1=O [Compound 154] | 80 | 50 | 50 | 60 | 50 | 50 | 60 | 55 | 80 | 90 | 90 | 90 | 90 | 40 | 80 | 90 | 95 | 0 |  |  |  |
| COC(=O)Oc1c(C)nn(C)c(=O)c1-c1c([N+](=O)[O-])ccc2ccccc12 [Compound 162] | 0 | 0 | 0 | 0 | 70 | 80 | 90 | 50 | 60 | 70 | 90 | 90 | 95 | 30 | 90 | 70 | 95 | 20 |  |  |  |
| CC(=O)Oc1c(C)nn(C)c(=O)c1-c1c([N+](=O)[O-])ccc2ccccc12 [Compound 164] | 0 | 0 | 0 | 0 | 60 | 85 | 90 | 35 | 45 | 70 | 80 | 90 | 95 | 20 |  |  |  | 0 | 95 | 80 | Plant response rating, Chickweed [5, 13]: 98 |
| CSCC(=O)Oc1c(C)nn(C)c(=O)c1-c1cccc2ccccc12 [Compound 171] | 60 | 0 | 0 | 0 | 95 | 95 | 98 | 65 | 90 | 90 | 90 | 90 | 90 | 40 |  |  |  | 20 | 98 | 95 | Plant response rating, Chickweed [5, 13]: 95 |

Reference: patent US10597388B2, “Pyridazinone herbicides” (FMC CORPORATION, priority 2014, dated 2020)
